{"source": "patent US9238034B2", "about": "“FN14 antagonists and therapeutic uses thereof” (THE TRANSLATIONAL GENOMICS RESEARCH INSTITUTE, priority 2013, dated 2016)", "biological_target": "T1, Fn14-TWEAK binding (Homo sapiens, UniProt Q9NP84)", "T1 construct": "the human Fc fragment-tagged Fn14 extracellular domain (R&D Systems) was captured; purchased R&D Systems (Fn14-Fc); Peprotech (recombinant TWEAK)", "T1 sequence (Q9NP84 28-80 limits assumed)": "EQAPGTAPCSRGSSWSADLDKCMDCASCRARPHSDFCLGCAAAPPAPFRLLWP", "test": "Double sandwich ELISA small molecule screening of TWEAK binding to captured Fn14-Fc", "description": "Double Sandwich ELISA. sTWEAK and sTWEAK variant proteins were synthesized as described above. The expression level of each IVTT synthesized sTWEAK protein was analyzed by western blot analysis and used in approximately equal amounts in the ELISA. To assay the binding of wild type sTWEAK and sTWEAK variants to Fn14, the human Fc fragment-tagged Fn14 extracellular domain (R&D Systems) was captured in an Immuno 96-microwell white plate by adding 100 μL of 0.025 μg/mL Fn14-Fc to wells coated with goat anti-human Fcγ fragment specific monoclonal antibody. After capture, the wells were washed 3× with Dulbecco's Phosphate Buffered Saline (DPBS) containing 0.05% Tween-20. Unbound sites were blocked by addition of 100 μL of blocking solution containing 0.05% Tween-20, 1% BSA, and 3% normal goat serum (NGS) in DPBS for 1 hr at room temperature. 0.01 μL of sTWEAK or sTWEAK variant made with the human IVTT kit or 2 μL of sTWEAK or sTWEAK variant made with the rabbit IVTT kit was diluted in 100 μL of sample diluent (DPBS+1% BSA+0.005% Tween-20) and then added to the wells for 2 hr followed by addition of 100 μL of 50 ng/mL biotinylated TWEAK detection antibody (R&D Systems) in sample diluent. Following incubation for additional 2 hr at room temperature, wells were washed 3× with DPBS containing 0.05% Tween-20 and bound biotinylated TWEAK antibody was detected by incubation with an HRP-conjugated streptavidin. The total luminescent signal was obtained using Femto ELISA kit (Pierce Biochemical) and compared to the standard curve signal obtained from the binding of 0-4000 pg/mL recombinant TWEAK (Peprotech inc) to Fn14-Fc. Using 5-parameter logistic curve fitting for standard curve analysis (Sigmaplot 11.0, SyStat Software Inc.), binding of sTWEAK or TWEAK variant to Fn14-Fc was determined. The data represents that observed for at least four replicate assays.\nThe small molecule screening was performed using the ELISA assay described above with minor modifications. Briefly, after capturing Fn14-Fc in the microwell plate, 80 μl of drug solution in sample diluent was added to desired wells and incubated for 2 hrs at room temperature. Subsequently, 20 μL of 2500 pg/mL (5×) TWEAK was added to each well to achieve final TWEAK concentration of 500 pg/mL and incubated for additional 2 hr at room temperature. Bound TWEAK was detected as described in the protocol above. All small molecule inhibitors were screened at 25 μM final concentration (final DMSO concentration of 0.125%) in duplicate. Cyclohexamide, a non-specific small molecule, at 25 μM concentration was used as negative control. The anti-Fn14 antibody ITEM-4, added at 2.5 μg/mL, was used as a positive control for complete blockade of TWEAK binding. Reduction in TWEAK binding due to compound addition or controls was calculated by using standard curve (Separate standard curve was obtained for every screening plate).", "note": "Like-named read-outs stand apart in the source and are kept apart here."}
{"molecule": "O=C(c1cn(-c2cccc(Cl)c2)nn1)N1CCSCC1", "note": "[Compound L524-0366]", "values": [{"measurement": "inhibition at 25 µM", "setting": "Table 4, second screening iteration, 25 μM, average of duplicate, read-out: % Reduction in TWEAK Binding, Average", "result": 16.9, "unit": "%"}, {"measurement": "inhibition at 25 µM", "setting": "Table 4, second screening iteration, 25 μM, replicate 1, read-out: % Reduction in TWEAK Binding, Data 1", "result": 18.8, "unit": "%"}, {"measurement": "inhibition at 25 µM", "setting": "Table 4, second screening iteration, 25 μM, replicate 2, read-out: % Reduction in TWEAK Binding, Data 2", "result": 14.9, "unit": "%"}, {"measurement": "inhibition at 25 µM", "setting": "Table 5, 25 μM, average of duplicate, read-out: % Reduction in TWEAK Binding, Average", "result": 16.9, "unit": "%"}, {"measurement": "inhibition at 25 µM", "setting": "Table 5, 25 μM, replicate 1, read-out: % Reduction in TWEAK Binding, Data 1", "result": 18.8, "unit": "%"}, {"measurement": "inhibition at 25 µM", "setting": "Table 5, 25 μM, replicate 2, read-out: % Reduction in TWEAK Binding, Data 2", "result": 14.9, "unit": "%"}]}
